{"source": "patent US6040331A", "about": "“Nerve cell protective agents” (Mochida Pharmaceutical Co., Ltd., priority 1996, dated 2000)", "key": {"[1]": {"test_system": "cerebral ischemic animal models", "conditions": "in vivo; cited from earlier work"}, "[2]": {"test_system": "neurons isolated from the cerebrum", "assay": "Naturally occurring neuronal death suppressing action (serum-free cultivation, Crystal Violet)", "type": "cell-based, embryonic day 16 rats", "conditions": "Rattus norvegicus, Neuron, 72 h; 1.0 μg/ml; serum-free, 3 days; read-out: Suppression of Naturally Occurring Neuronal Death", "method": "The action of compounds to suppress the naturally occurring death of neurons was evaluated in terms of their effectiveness in suppressing or inhibiting the naturally occurring death of neurons as induced by exposing cultured neurons to serum-free cultivation conditions. An experiment was run by a method adapted from the method of Shimojo et al., Neurosci. Lett., 151, 170, 1993. Specifically, neurons were isolated from the cerebrum of embryonic day 16 rats in the usual manner, suspended in a DMEM/F12 medium containing 1% fetal bovine serum, seeded onto a polylysine-coated culture plate at a density of 5×10^4 cells per square centimeter and cultivated at 37° C. in 95% air+5% CO2. After one day of culture, the medium was replaced with a serum-free medium containing a compound to be tested and the cultivation was continued for 3 more days. Subsequently, the cells were fixed with 1% glutaraldehyde and their number was determined by calorimetric quantification using Crystal Violet (Anal. Biochem., 182, 16-19, 1989). The percent suppression of neuronal death by the test compound was determined by the following formula:\n(§1) 100×(ODtest-ODcontrol)/(ODnormal-ODcontrol) (%)\nwhere ODtest is the number of cells (absorbance) in the group of addition of test compound after serum removal, ODcontrol is the number of cells (absorbance) in a control group after serum removal, and ODnormal is the number of cells (absorbance) in a control (normal) group without serum removal."}, "[3]": {"test_system": "neurons isolated from the cerebrum", "assay": "Veratrine-induced neuronal death suppressing action (MTT)", "type": "cell-based, embryonic day 16 rats", "conditions": "Rattus norvegicus, Neuron; veratrine 0.35 mM; MTT after 24 h; probit method; read-out: IC50 (50% suppression of veratrine-induced neuronal death)", "method": "The action of compounds to suppress the death of neurons induced by veratrine was evaluated in terms of their effectiveness in suppressing the neuronal death as induced by direct addition of veratrine. An experiment was run by a method adapted from the method of Powells et al., J. Pharmacol. Exp. Therapeutics, 255, 1117, 1987. Specifically, neurons were isolated from the cerebrum of embryonic day 16 rats in the usual manner, suspended in a MEM medium containing 10% fetal bovine serum, seeded onto a polylysine-coated culture plate at a density of 2.5×10^5 cells per square centimeter and cultivated at 37° C. in 95% air+5% CO2. Starting on the fifth day of cultivation, treatment was conducted with 10 μM of cytosine arabinoside for 2 days and the cultivation was continued until the 12th day, when a test was run as follows. The cells were treated with a buffer solution containing veratrine (0.35 mM) and a test compound, replaced in a serum-containing medium and cultivated for another 24 h. Subsequently, the number of viable cells was determined by calorimetric quantification using 3-(4,5-dimethylthiazol-2-yl)-2,5-diphenyltetrazolium bromide (MTT). The percent suppression of neuronal death by the test compound was determined by the following formula:\nas §1\nwhere ODtest is the number of cells (absorbance) in the group of addition of veratrine+test compound, ODcontrol is the number of cells (absorbance) in a control group of addition of veratrine, and ODnormal is the number of cells (absorbance) in a control (normal) group without addition of veratrine.\nIn addition, IC50 values indicating the effectiveness in achieving 50% suppression of neuronal death were calculated by the probit method on the basis of the result from more than one concentration."}, "[4]": {"test_system": "pyramidal cells in the hippocampus CA1 region", "assay": "Effectiveness in gerbil model of delayed neuronal death (damage score, 4 min ischemia)", "type": "in vivo", "conditions": "carotid arteries 5 min before ischemia, score 0-4", "method": "(§2) Specifically, the cervical part of a gerbil under anesthesia by halothane inhalation was incised along the median line to expose the carotid artery on both sides, which were occuluded with clips for 4 min and thereafter brought back to patency. After suturing the incised part, the anesthetization was turned off and the animal was brought back to keeping under normal condition. Three days after loading of cerebral ischemia, the gerbil was anesthetized by administering pentobarbital, fixed by transcardiac formalin perfusion and had the brain isolated. A coronary slice including the fimbria hippocampi was prepared from the isolated brain and stained with Cresyl Violet. The pyramidal cells in the hippocampus CA1 region were examined under an optical microscope and the degree of damage was rated by the following scores: 0, no damage; 1, slight damage; 2, moderate damage; 3, significant damage; 4, total damage. Each test compound was administered through the carotid arteries 5 min before ischemia."}, "cerebral infarction": {"test_system": "cerebral infarction", "assay": "Effectiveness in rat model of permanent occlusion of middle cerebral artery", "type": "in vivo", "conditions": "10 mg/kg, tail vein, 10 min after occlusion; 24 h; control 14.7 ± 0.8; mean ± standard error; ** p < 0.01 vs control group", "source_text": "The therapeutic effect of compounds against cerebral infarction was studied in accordance with the method of Tamura et al., J. Cereb. Blood Flow Metab., 1, 53, 1981.\nSpecifically, a hole was made transorbitally in part of the cranial bone of a rat under anesthesia by halothane inhalation to expose the origin of the middle cerebral artery. Then, using a bipolar coagulator, the middle cerebral arteries were burnt to coagulate for permanent occlusion. The operative site was sutured and after the anesthetization was turned off, the animal was brought back to keeping under normal condition. Twenty-four hours after loading of cerebral ischemia, the rat was decapitated and the brain was isolated. The isolated brain was cut at a predetermined site to prepare five coronary slices. The infarct area of each section was rendered visible by staining with 2,3,5-triphenyltetrazolium chloride (TTC) and quantitated with an image analyzer. A test compound was administered through the tail vein 10 min after the occlusion of the middle cerebral arteries and comparison was made with a control group administered with a solvent alone."}, "mice (ICR)": {"test_system": "mice (ICR)", "assay": "Acute toxicity test", "type": "in vivo, mouse", "conditions": "100 mg/kg, intraperitoneal, 7-day observation, 3 animals per group"}, "[5]": {"test_system": "formalin induced pain reaction", "assay": "Effectiveness in formalin induced paw pain test", "type": "in vivo, mouse", "conditions": "for Suppression of pain reaction, Second phase / Suppression of pain reaction, First phase: oral, 30 min before formalin; for Suppression of pain reaction, Second phase: from 10 min to 45 min; for Suppression of pain reaction, First phase: within 10 min after induction", "method": "The effectiveness of compounds in a formalin induced pain test was studied in accordance with the method of Shibata et al., Pain, 38, 347, 1989.\nSpecifically, the left hind paw of a mouse was injected subcutaneously with 25 μl of a 0.5% formalin solution and the duration of time for which the mouse licked and bit the treated foot starting just after the injection was measured with a stopwatch; the measured times were integrated for every 5 minutes and recorded. The formalin induction caused a characteristic biphase pain reaction; the pain recognized within 10 min after the induction was categorized as a first-phase pain reaction and the pain recognized from 10 min to 45 min as a second-phase reaction. The test compounds were administered orally 30 min before the injection of formalin. The percent suppression of the formalin induced pain reaction by each test compound was determined by the following formula:\n100×(PRcontrol-PRtest)/(PRcontrol) (%)\nwhere PRtest is the time (sec) of pain reaction in a group administered with both formalin and the test compound and PRcontrol is the time (sec) of pain reaction in a control group subjected to formalin induction."}, "[6]": {"test_system": "pyramidal cells in the hippocampus CA1 region", "assay": "Effectiveness in gerbil model of delayed neuronal death (pyramidal cell count, 3 min ischemia)", "type": "in vivo", "conditions": "carotid arteries 5 min before ischemia, ischemic control 58 ± 22, non-ischemic 249 ± 10, mean ± standard error, hydrochloride", "method": "as §2, with “The action of compounds to suppress the death of neurons in vivo was studied by the method of Murase et al., Neurosci. Lett., 149, 229, 1993 which was adapted from the method of Kirino et al., Brain Res., 239, 57, 1982. Specifically,” for “Specifically,”, “3” for “4”, “Seven” for “Three”, “counted” for “examined”, “microscope.” for “microscope and the degree of damage was rated by the following scores: 0, no damage; 1, slight damage; 2, moderate damage; 3, significant damage; 4, total damage.”"}, "hippocampus": {"test_system": "hippocampus", "conditions": "Bode et al., cited from earlier work"}, "[7]": {"conditions": "10 mg/kg, ** p < 0.01 vs ischemic control group"}}, "data": [{"smiles": "Cc1ccc(-c2nc(C)c(CN3CCN(C(c4ccccc4)c4ccccc4)CC3)[nH]2)cc1", "note": "[lifarizine]", "values": [{"measurement": "effectiveness in cerebral ischemic animal models (in words)", "setting": "[1]", "result": "effective"}]}, {"smiles": "O=c1[nH]c2cc(-n3ccnc3)c([N+](=O)[O-])cc2[nH]c1=O", "note": "[YM90K]", "values": [{"measurement": "effectiveness in cerebral ischemic animal models (in words)", "setting": "[1]", "result": "effective"}]}, {"smiles": "NC1CCc2c(-c3ccccc3)[nH]c3cccc1c23", "note": "(stereo not shown) [Example 81, 5-amino-2-phenyl-1,3,4,5-tetrahydrobenz[cd]indole]", "values": [{"measurement": "inhibition at 1 µg/mL", "setting": "[2]", "result": 51, "unit": "%"}, {"measurement": "IC50", "setting": "[3]", "result": 3.2, "unit": "µg/mL"}, {"measurement": "Score of damage to hippocampus CA1", "setting": "[4]; 10 mg/kg, ischemic control 2.9 ± 0.3, mean ± standard error (Table 3-1)", "result": "0.1 ± 0.1"}, {"measurement": "Weight of infarction", "setting": "cerebral infarction", "result": "9.3 ± 1.5", "unit": "%"}, {"measurement": "death (acute toxicity)", "setting": "mice (ICR)", "result": "no case of death was found"}]}, {"smiles": "CC(C)=CCN1CCC2(C)c3cc(O)ccc3CC1C2C", "note": "(stereo not shown) [pentazocine, reference compound]", "values": [{"measurement": "suppression of the first-phase pain reaction", "setting": "[5]; 10 mg/kg, subcutaneous", "result": 61, "unit": "%"}, {"measurement": "suppression of the second-phase pain reaction", "setting": "[5]; 10 mg/kg, subcutaneous", "result": 40, "unit": "%"}]}, {"smiles": "NC1CCc2c(-c3ccccc3)[nH]c3c(Cl)ccc1c23", "note": "(stereo not shown) [Example 86, 5-amino-8-chloro-2-phenyl-1,3,4,5-tetrahydrobenz[cd]indole]", "values": [{"measurement": "Score of damage to hippocampus CA1", "setting": "[4]; 5 mg/kg, ischemic control 2.9 ± 0.3, mean ± standard error (Table 3-1)", "result": "1.8 ± 0.1"}, {"measurement": "death (acute toxicity)", "setting": "mice (ICR)", "result": "no case of death was found"}]}, {"smiles": "CN1CCN(c2ncc(-c3cc(Cl)cc(Cl)c3Cl)c(N)n2)CC1", "note": "[BW619C89]", "values": [{"measurement": "effectiveness in cerebral ischemic animal models (in words)", "setting": "[1]", "result": "effective"}]}, {"smiles": "Cl.Fc1ccccc1-c1[nH]c2cccc3c2c1CCC3N1CCOCC1", "note": "(single isomer, unassigned; (+)) [Example 247, (+)-2-(2-fluorophenyl)-5-morpholino-1,3,4,5-tetrahydrobenz[cd]indole hydrochloride]", "values": [{"measurement": "Pyramidal cell count in hippocampus CA1", "setting": "[6]; 2.5 mg/kg", "result": "96 ± 31", "unit": "cells/mm"}, {"measurement": "Pyramidal cell count in hippocampus CA1", "setting": "[6]; [7]", "result": "83 ± 35", "unit": "cells/mm"}]}, {"smiles": "CCCN(CCC)C1Cc2c[nH]c3ccc(OC)c(c23)C1", "note": "(stereo not shown) [BAY-R-1531]", "values": [{"measurement": "effect on damage to the hippocampus of gerbils after brain ischemia (in words)", "setting": "hippocampus; Stroke, 21, 1990", "result": "effective for damage to the hippocampus of gerbils after brain ischemia"}, {"measurement": "dose of protective effect relative to dose altering patterns of behavior (in words)", "setting": "hippocampus; serotonin-like action", "result": "the protective effect of the compound was only recognized at a by far higher dose than the one that caused altered patterns of behavior due to a serotonin-like action"}]}, {"smiles": "Cl.Fc1ccccc1-c1[nH]c2cccc3c2c1CCC3N1CCOCC1", "note": "(stereo not shown) [Example 232, 2-(2-fluorophenyl)-5-morpholino-1,3,4,5-tetrahydrobenz[cd]indole hydrochloride]", "values": [{"measurement": "Score of damage to hippocampus CA1", "setting": "[4]; 10 mg/kg, ischemic control 3.5 ± 0.4, mean ± standard error (Table 3-2)", "result": "2.5 ± 0.7"}, {"measurement": "Suppression of pain reaction, Second phase", "setting": "[5]; 200 mg/kg", "result": 100, "unit": "%"}, {"measurement": "Suppression of pain reaction, First phase", "setting": "[5]; 200 mg/kg", "result": 51, "unit": "%"}]}, {"smiles": "Cl.Cn1c(-c2ccccc2)c2c3c(cccc31)C(N1CCOCC1)CC2", "note": "(stereo not shown) [Example 237, 1-methyl-5-morpholino-2-phenyl-1,3,4,5-tetrahydrobenz[cd]indole hydrochloride]", "values": [{"measurement": "Suppression of pain reaction, Second phase", "setting": "[5]; 100 mg/kg", "result": 97, "unit": "%"}, {"measurement": "Suppression of pain reaction, First phase", "setting": "[5]; 100 mg/kg", "result": 63, "unit": "%"}]}, {"smiles": "Cl.Fc1ccccc1-c1[nH]c2cccc3c2c1CCC3N1CCOCC1", "note": "(single isomer, unassigned; (-)) [Example 248, (-)-2-(2-fluorophenyl)-5-morpholino-1,3,4,5-tetrahydrobenz[cd]indole hydrochloride]", "values": [{"measurement": "Pyramidal cell count in hippocampus CA1", "setting": "[6]; 2.5 mg/kg", "result": "87 ± 29", "unit": "cells/mm"}, {"measurement": "Pyramidal cell count in hippocampus CA1", "setting": "[6]; [7]", "result": "206 ± 14", "unit": "cells/mm"}]}, {"smiles": "O=C(O)[C@@H]1C[C@H](CP(=O)(O)O)CCN1", "note": "(relative stereo) [selphotel]", "values": [{"measurement": "effectiveness in cerebral ischemic animal models (in words)", "setting": "[1]", "result": "effective"}]}, {"smiles": "C[C@]12N[C@H](Cc3ccccc31)c1ccccc12", "note": "[dizocilpine]", "values": [{"measurement": "effectiveness in cerebral ischemic animal models (in words)", "setting": "[1]", "result": "effective"}]}]}
